Laboratory results taken from the kinase profiling compilation of Christmann-Franck et al. (2016).

How the values were obtained:
Experiment in all cases: KINOMEscan competition binding
Details in all cases: compound 10.0 µM
ADCK3 (human) = ADCK3 (human) (UniProt Q8NI60)
CDK13 (human) = CDK13 (human) (UniProt Q14004)
CDK18 (human) = CDK18 (human) (UniProt Q07002)
CDK19 (human) = CDK19 (human) (UniProt Q9BWU1)
CDK4 CCND3 (human) = CDK4 CCND3 (human) (UniProt P11802+P30281)
CDK9 (human) = CDK9 (human) (UniProt P50750)
CDKL3 (human) = CDKL3 (human) (UniProt Q8IVW4)
DCLK1 (human) = DCLK1 (human) (UniProt O15075)
EIF2AK2 (human) = EIF2AK2 (human) (UniProt P19525)
EPHA1 (human) = EPHA1 (human) (UniProt P21709)
EPHA8 (human) = EPHA8 (human) (UniProt P29322)
FES (human) = FES (human) (UniProt P07332)
FGFR2 (human) = FGFR2 (human) (UniProt P21802)
INSR (human) = INSR (human) (UniProt P06213)
[1] = target: JAK1 JH1 catalytic (human) (UniProt P23458)
MAP2K6 (human) = MAP2K6 (human) (UniProt P52564)
MAPK14 (human) = MAPK14 (human) (UniProt Q16539)
MAPKAPK5 (human) = MAPKAPK5 (human) (UniProt Q8IW41)
MARK3 (human) = MARK3 (human) (UniProt P27448)
[2] = test system: MET (human), P08581 [M1250T]
NIM1 (human) = NIM1 (human) (UniProt Q8IY84)
NTRK2 (human) = NTRK2 (human) (UniProt Q16620)
PAK6 (human) = PAK6 (human) (UniProt Q9NQU5)
PI4KB (human) = PI4KB (human) (UniProt Q9UBF8)
PRKD2 (human) = PRKD2 (human) (UniProt Q9BZL6)
PRPF4B (human) = PRPF4B (human) (UniProt Q13523)
RIOK2 (human) = RIOK2 (human) (UniProt Q9BVS4)
RIOK3 (human) = RIOK3 (human) (UniProt O14730)
RPS6KA5 KD1 (human) = RPS6KA5 KD1 (human) (UniProt O75582)
SGK110 (human) = SGK110 (human) (UniProt P0C264)
SRPK3 (human) = SRPK3 (human) (UniProt Q9UPE1)
STK16 (human) = STK16 (human) (UniProt O75716)
TEC (human) = TEC (human) (UniProt P42680)
TESK1 (human) = TESK1 (human) (UniProt Q15569)
ULK2 (human) = ULK2 (human) (UniProt Q8IYT8)
MAP2K3 (human) = MAP2K3 (human) (UniProt P46734)
PLK4 (human) = PLK4 (human) (UniProt O00444)
PRKG1 (human) = PRKG1 (human) (UniProt Q13976)
SYK (human) = SYK (human) (UniProt P43405)
[3] = test system: EGFR (human), P00533 [L858R]

Chain of CDK19 (human) (Q9BWU1 whole entry, looked up): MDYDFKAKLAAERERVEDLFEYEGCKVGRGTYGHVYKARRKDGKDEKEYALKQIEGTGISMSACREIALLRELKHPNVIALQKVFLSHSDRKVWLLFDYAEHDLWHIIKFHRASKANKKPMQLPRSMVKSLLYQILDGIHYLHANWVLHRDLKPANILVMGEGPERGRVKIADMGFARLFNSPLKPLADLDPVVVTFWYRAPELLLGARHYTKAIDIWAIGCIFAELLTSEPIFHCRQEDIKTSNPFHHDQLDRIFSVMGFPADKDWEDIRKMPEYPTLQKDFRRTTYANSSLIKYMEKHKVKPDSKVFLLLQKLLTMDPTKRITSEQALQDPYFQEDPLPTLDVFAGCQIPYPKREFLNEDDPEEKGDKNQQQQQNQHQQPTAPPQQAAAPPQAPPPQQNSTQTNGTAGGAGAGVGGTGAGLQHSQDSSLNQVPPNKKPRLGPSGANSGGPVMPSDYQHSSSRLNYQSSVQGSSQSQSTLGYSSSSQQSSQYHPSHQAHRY
Chain of ULK2 (human) (Q8IYT8 whole entry, looked up): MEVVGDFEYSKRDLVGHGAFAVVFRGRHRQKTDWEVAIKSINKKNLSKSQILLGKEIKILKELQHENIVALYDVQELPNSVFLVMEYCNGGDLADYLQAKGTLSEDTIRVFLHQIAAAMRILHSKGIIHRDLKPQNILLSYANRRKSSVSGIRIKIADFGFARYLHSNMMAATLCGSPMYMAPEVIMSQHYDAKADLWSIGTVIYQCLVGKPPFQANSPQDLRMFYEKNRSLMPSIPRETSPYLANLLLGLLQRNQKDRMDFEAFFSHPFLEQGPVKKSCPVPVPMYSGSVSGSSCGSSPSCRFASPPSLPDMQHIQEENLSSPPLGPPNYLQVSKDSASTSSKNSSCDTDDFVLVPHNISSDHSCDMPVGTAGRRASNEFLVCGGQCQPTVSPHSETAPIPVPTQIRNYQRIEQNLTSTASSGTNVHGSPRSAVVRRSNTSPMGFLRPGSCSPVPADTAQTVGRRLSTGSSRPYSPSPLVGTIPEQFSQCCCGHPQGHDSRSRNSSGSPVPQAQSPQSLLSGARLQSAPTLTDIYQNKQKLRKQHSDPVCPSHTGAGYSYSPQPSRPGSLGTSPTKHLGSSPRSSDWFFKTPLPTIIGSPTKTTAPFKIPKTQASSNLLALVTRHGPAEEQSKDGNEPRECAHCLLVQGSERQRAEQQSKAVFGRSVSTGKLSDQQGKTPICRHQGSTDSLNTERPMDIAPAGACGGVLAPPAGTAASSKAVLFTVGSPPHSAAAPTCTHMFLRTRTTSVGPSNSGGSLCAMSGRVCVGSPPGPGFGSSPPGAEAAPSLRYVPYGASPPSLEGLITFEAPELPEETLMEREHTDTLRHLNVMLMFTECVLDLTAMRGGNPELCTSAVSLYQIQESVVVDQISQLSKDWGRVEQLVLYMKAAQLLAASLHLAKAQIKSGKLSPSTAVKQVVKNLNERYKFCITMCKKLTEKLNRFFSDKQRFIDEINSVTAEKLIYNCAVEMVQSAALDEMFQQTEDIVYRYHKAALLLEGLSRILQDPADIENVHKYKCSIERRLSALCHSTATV
Chain of TESK1 (human) (Q15569 whole entry, looked up): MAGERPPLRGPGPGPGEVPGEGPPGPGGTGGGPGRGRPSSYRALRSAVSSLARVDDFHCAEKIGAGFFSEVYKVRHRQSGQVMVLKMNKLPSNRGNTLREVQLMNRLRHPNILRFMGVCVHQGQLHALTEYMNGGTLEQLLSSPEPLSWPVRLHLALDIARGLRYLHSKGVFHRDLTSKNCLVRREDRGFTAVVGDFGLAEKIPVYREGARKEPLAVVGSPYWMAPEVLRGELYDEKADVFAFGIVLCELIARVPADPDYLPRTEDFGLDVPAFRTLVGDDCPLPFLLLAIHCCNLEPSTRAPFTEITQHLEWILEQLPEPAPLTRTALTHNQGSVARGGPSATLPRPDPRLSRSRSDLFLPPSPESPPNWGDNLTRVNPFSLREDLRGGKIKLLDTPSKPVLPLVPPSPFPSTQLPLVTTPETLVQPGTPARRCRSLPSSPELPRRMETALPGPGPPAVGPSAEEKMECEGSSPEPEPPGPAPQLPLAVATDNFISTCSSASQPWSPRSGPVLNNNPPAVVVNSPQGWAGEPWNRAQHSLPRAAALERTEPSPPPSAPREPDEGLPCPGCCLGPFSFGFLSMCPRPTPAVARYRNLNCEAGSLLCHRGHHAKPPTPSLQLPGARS
Chain of CDK9 (human) (P50750 whole entry, looked up): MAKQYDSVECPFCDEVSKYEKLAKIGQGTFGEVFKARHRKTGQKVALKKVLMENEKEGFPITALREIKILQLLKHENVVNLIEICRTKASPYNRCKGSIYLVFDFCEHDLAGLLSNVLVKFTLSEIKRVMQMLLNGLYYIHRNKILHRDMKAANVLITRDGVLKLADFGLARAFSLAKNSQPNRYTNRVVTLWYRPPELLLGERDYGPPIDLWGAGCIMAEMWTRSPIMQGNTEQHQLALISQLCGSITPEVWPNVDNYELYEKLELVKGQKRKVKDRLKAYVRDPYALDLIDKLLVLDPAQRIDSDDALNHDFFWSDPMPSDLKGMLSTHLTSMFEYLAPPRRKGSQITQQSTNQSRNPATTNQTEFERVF
Chain of FGFR2 (human) (P21802 whole entry, looked up): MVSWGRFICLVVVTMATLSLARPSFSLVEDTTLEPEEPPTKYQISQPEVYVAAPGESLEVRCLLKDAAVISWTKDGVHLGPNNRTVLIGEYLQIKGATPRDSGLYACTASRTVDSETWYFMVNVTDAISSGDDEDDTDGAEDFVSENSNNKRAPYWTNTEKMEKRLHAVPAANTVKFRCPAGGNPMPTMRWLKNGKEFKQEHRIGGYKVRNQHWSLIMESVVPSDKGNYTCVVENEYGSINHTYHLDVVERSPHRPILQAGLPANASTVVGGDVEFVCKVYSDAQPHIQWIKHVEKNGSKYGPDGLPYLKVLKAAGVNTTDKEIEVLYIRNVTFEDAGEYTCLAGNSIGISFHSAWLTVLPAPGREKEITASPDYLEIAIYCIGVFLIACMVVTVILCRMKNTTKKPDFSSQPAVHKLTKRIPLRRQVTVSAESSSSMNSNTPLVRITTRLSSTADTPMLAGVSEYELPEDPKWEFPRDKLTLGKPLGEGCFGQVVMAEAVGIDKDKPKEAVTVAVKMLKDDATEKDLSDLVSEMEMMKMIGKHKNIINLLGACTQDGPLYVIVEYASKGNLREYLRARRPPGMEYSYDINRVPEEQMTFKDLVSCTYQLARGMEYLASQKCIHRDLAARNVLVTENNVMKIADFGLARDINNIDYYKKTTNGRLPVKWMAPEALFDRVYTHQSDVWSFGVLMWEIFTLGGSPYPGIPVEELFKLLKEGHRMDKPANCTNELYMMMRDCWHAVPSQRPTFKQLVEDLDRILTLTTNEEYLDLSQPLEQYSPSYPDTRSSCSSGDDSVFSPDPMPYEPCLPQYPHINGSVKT
Chain of EIF2AK2 (human) (P19525 whole entry, looked up): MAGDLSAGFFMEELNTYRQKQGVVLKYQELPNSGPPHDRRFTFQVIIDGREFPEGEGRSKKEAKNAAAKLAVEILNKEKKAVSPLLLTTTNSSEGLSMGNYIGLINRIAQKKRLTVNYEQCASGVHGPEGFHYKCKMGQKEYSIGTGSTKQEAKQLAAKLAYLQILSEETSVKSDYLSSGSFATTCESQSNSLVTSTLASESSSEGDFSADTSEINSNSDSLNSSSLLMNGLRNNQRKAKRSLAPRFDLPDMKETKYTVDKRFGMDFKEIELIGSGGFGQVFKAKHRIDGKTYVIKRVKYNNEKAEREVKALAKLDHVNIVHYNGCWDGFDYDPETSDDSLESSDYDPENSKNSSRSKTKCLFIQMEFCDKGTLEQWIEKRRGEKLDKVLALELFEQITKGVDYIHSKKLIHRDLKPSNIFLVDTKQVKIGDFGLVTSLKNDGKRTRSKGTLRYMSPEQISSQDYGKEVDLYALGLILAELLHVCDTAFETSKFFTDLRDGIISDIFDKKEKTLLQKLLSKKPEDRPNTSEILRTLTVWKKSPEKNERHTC
Chain of PLK4 (human) (O00444 whole entry, looked up): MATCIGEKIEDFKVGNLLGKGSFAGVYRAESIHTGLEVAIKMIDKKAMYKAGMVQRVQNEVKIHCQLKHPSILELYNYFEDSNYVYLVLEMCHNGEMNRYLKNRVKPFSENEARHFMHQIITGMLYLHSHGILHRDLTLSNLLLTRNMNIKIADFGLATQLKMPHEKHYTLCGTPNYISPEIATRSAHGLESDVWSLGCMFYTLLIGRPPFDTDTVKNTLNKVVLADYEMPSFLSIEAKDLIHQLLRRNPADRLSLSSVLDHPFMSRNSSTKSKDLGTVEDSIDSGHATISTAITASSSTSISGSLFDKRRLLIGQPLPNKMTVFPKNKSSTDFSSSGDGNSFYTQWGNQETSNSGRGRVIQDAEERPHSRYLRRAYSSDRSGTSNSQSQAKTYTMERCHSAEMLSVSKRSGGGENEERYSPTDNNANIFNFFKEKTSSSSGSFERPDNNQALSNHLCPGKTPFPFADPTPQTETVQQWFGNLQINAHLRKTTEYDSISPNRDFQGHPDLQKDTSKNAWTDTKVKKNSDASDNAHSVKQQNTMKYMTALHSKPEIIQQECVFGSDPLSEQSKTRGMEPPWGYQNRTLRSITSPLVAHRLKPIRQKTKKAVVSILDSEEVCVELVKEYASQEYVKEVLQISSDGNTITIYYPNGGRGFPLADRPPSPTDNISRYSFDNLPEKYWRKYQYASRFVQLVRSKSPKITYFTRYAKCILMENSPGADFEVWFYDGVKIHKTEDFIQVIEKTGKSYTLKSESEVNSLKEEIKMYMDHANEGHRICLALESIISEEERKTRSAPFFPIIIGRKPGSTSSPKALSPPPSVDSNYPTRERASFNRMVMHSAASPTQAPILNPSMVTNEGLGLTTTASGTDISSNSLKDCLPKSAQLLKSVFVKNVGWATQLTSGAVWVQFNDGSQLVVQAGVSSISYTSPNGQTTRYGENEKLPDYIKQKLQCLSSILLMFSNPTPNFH

Row | SMILES | kinase still bound, per cent of control (ADCK3 (human)) [%] | kinase still bound, per cent of control (CDK18 (human)) [%] | kinase still bound, per cent of control (CDK19 (human)) [%] | kinase still bound, per cent of control (CDK9 (human)) [%] | kinase still bound, per cent of control (CDKL3 (human)) [%] | kinase still bound, per cent of control (DCLK1 (human)) [%] | kinase still bound, per cent of control (EIF2AK2 (human)) [%] | kinase still bound, per cent of control (EPHA1 (human)) [%] | kinase still bound, per cent of control (EPHA8 (human)) [%] | kinase still bound, per cent of control (FES (human)) [%] | kinase still bound, per cent of control (FGFR2 (human)) [%] | kinase still bound, per cent of control (MAP2K6 (human)) [%] | kinase still bound, per cent of control (MARK3 (human)) [%] | kinase still bound, per cent of control [2] [%] | kinase still bound, per cent of control (NIM1 (human)) [%] | kinase still bound, per cent of control (NTRK2 (human)) [%] | kinase still bound, per cent of control (PAK6 (human)) [%] | kinase still bound, per cent of control (PRKD2 (human)) [%] | kinase still bound, per cent of control (PRPF4B (human)) [%] | kinase still bound, per cent of control (RIOK2 (human)) [%] | further results
1 | CCN(CCO)CCCOc1ccc2c(Nc3cc(CC(=O)Nc4cccc(F)c4)[nH]n3)ncnc2c1 | 85 | 62 | 100 | 82 | 99 | 51 | 100 | 100 | 90 | 100 | 80 | 99 | 88 | 52 | 97 | 8.2 | 98 | 80 | 67 | 58 | kinase still bound, per cent of control (CDK13 (human)): 66%; kinase still bound, per cent of control (CDK4 CCND3 (human)): 100%; kinase still bound, per cent of control (INSR (human)): 75%; kinase still bound, per cent of control [1]: 100%; kinase still bound, per cent of control (MAPK14 (human)): 100%; kinase still bound, per cent of control (MAPKAPK5 (human)): 100%; kinase still bound, per cent of control (PI4KB (human)): 100%; kinase still bound, per cent of control (RIOK3 (human)): 100%; kinase still bound, per cent of control (RPS6KA5 KD1 (human)): 100%; kinase still bound, per cent of control (SGK110 (human)): 100%; kinase still bound, per cent of control (SRPK3 (human)): 100%; kinase still bound, per cent of control (STK16 (human)): 100%; kinase still bound, per cent of control (TEC (human)): 78%; kinase still bound, per cent of control (TESK1 (human)): 100%; kinase still bound, per cent of control (ULK2 (human)): 100%
2 | CCc1nc(-c2cccc(C)c2)c(-c2ccnc(NC(=O)c3ccccc3)c2)s1 | 0.2 | 96 | 91 | 95 | 81 | 96 | 94 | 56 | 89 | 97 | 71 | 79 | 72 | 100 | 100 | 100 | 98 | 46 | 80 | 92 | kinase still bound, per cent of control (CDK13 (human)): 100%; kinase still bound, per cent of control (CDK4 CCND3 (human)): 92%; kinase still bound, per cent of control [1]: 100%; kinase still bound, per cent of control (MAP2K3 (human)): 96%; kinase still bound, per cent of control (MAPKAPK5 (human)): 100%; kinase still bound, per cent of control (PI4KB (human)): 100%; kinase still bound, per cent of control (PLK4 (human)): 100%; kinase still bound, per cent of control (PRKG1 (human)): 100%; kinase still bound, per cent of control (RIOK3 (human)): 100%; kinase still bound, per cent of control (RPS6KA5 KD1 (human)): 100%; kinase still bound, per cent of control (SGK110 (human)): 100%; kinase still bound, per cent of control (SRPK3 (human)): 100%; kinase still bound, per cent of control (STK16 (human)): 74%; kinase still bound, per cent of control (SYK (human)): 88%; kinase still bound, per cent of control (TEC (human)): 100%; kinase still bound, per cent of control (TESK1 (human)): 81%; kinase still bound, per cent of control (ULK2 (human)): 100%
3 | CC(=O)c1c(C)c2cnc(Nc3ccc(N4CCNCC4)cn3)nc2n(C2CCCC2)c1=O | 63 | 20 | 100 | 27 | 78 | 2.9 | 30 | 100 | 93 | 80 | 95 | 45 | 8 | 41 | 40 | 12 | 66 | 0.7 | 78 | 56 | kinase still bound, per cent of control (CDK13 (human)): 47%; kinase still bound, per cent of control (CDK4 CCND3 (human)): 2%; kinase still bound, per cent of control (INSR (human)): 67%; kinase still bound, per cent of control (MAP2K3 (human)): 19%; kinase still bound, per cent of control (PLK4 (human)): 3.2%; kinase still bound, per cent of control (RIOK3 (human)): 64%; kinase still bound, per cent of control (SRPK3 (human)): 23%; kinase still bound, per cent of control (STK16 (human)): 3.4%; kinase still bound, per cent of control (TEC (human)): 98%; kinase still bound, per cent of control (TESK1 (human)): 99%; kinase still bound, per cent of control (ULK2 (human)): 0%
4 | CCOc1cc(N2CCC(O)CC2)ccc1Nc1ncc2c(n1)N(C)c1ccccc1C(=O)N2C | 100 | 100 | 100 | 100 | 100 | 0.9 | 100 | 100 | 100 | 100 | 100 | 100 | 100 | 100 | 100 | 100 | 100 | 100 | 100 | 100 | kinase still bound, per cent of control [3]: 100%; kinase still bound, per cent of control (INSR (human)): 100%; kinase still bound, per cent of control [1]: 100%; kinase still bound, per cent of control (MAP2K3 (human)): 100%; kinase still bound, per cent of control (MAPK14 (human)): 100%; kinase still bound, per cent of control (MAPKAPK5 (human)): 100%; kinase still bound, per cent of control (PI4KB (human)): 100%; kinase still bound, per cent of control (PLK4 (human)): 2.8%; kinase still bound, per cent of control (PRKG1 (human)): 100%; kinase still bound, per cent of control (RIOK3 (human)): 100%; kinase still bound, per cent of control (RPS6KA5 KD1 (human)): 100%; kinase still bound, per cent of control (SGK110 (human)): 100%; kinase still bound, per cent of control (SRPK3 (human)): 100%; kinase still bound, per cent of control (STK16 (human)): 100%; kinase still bound, per cent of control (SYK (human)): 100%; kinase still bound, per cent of control (TEC (human)): 100%; kinase still bound, per cent of control (TESK1 (human)): 100%; kinase still bound, per cent of control (ULK2 (human)): 100%
